Assay results as given in PubChem BioAssay (NCI).
Several values for one entry are separate records, joined by “and”; a condition that tells them apart may be missing. Equal values may be shown once.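 Cells were grown in 96-well plates and exposed to each compound for 48 hours at five concentrations; endpoints were interpolated linearly between bracketing concentrations, or set to the highest concentration if not reached. At the GI50, growth is halved. TGI: concentration producing complete growth inhibition.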

How the values were obtained:
Test in all cases: NCI tumour cell line growth inhibition, 48 h
[1] = test system: A549 NSCLC
[2] = test system: UACC-257 melanoma
[3] = test system: OVCAR-3 ovarian
[4] = test system: HCT-116 colon
[5] = test system: OVCAR-8 ovarian
[6] = test system: SW-620 colon
[7] = test system: HS 578T breast
[8] = test system: IGROV1 ovarian
[9] = test system: M14 melanoma
[10] = test system: RPMI-8226 leukemia

SMILES | GI50 [1] [µM] | TGI [1] [µM] | GI50 [2] | TGI [2] | GI50 [3] [µM] | TGI [3] | GI50 [4] | TGI [4] | GI50 [5] [µM] | TGI [5] | GI50 [6] [µM] | TGI [6] | GI50 [7] [µM] | TGI [7] [µM] | GI50 [8] [µM] | TGI [8] | GI50 [9] [µM] | TGI [9] | GI50 [10] [µM] | TGI [10]
COc1cc(C)ccc1C(=O)c1ccc(C)cc1OC | 3.35 | > 100 | 54.8 µM | > 100 µM | 2.1 | 6.55 µM | 3.25 µM | > 100 µM | 4.89 | > 100 µM | 1.41 | > 100 µM | 3.45 | > 100 | 6.58 | > 100 µM | 1.32 | > 100 µM | 3.7 | 27.7 µM
C=C1CCC2C3(C)COC(C)(C)OC3CCC2(C)C1C/C=C1/C(=O)OCC1OC(C)=O (configuration not stated) | 3.5 | 12.8 | 2.02 µM | 5.62 µM | 2.47 | 6.07 µM | 1.1 µM | 2.31 µM | 2.18 | 6.8 µM | 1.27 | 2.74 µM | 2.75 | 9.59 | 2.03 | 6.84 µM | 1.77 | 3.78 µM | 2.24 | 7.49 µM
CC(=O)c1c(C(F)(F)F)n([O-])c2ccccc2[n+]1=O | 2.28 | 14.3 | 2.77 µM | 13.6 µM | 0.746 | 2.61 µM | 1.55 µM | 10.5 µM | 2.96 | > 100 µM | 1.57 | 13.3 µM | 1.97 | 6.5 | 1.02 | 3.78 µM | 1.63 | 7.47 µM | 0.572 | 3.62 µM
CNC(=S)Nc1ccc(OC)c2ccccc12 |  | > 10 |  | > 10 µM |  | 6.72 µM |  | > 10 µM |  | > 10 µM |  | > 10 µM |  | > 10 |  | > 10 µM |  | > 10 µM |  | > 10 µM
COc1ccc2c(c1)C(=O)/C(=C/c1cccc(OCC(=O)c3ccccc3)c1)CC2 | 36.6 | > 100 | 8.56 µM | > 100 µM | 18.3 | > 100 µM | 3.52 µM | > 100 µM | 44.1 | > 100 µM | 4.88 | > 100 µM | 43.7 | > 100 | 4.19 | > 100 µM | 16.7 | > 100 µM | 2.31 | 5.91 µM
Cc1ccc(S(=O)(=O)SC/C=C\CSS(=O)(=O)c2ccc(C)cc2)cc1 |  | > 100 | 42.3 µM and 20.8 µM | > 56.2 µM and 45.1 µM |  | 78.8 µM and 56 µM | 5.31 µM and 19.9 µM | 29.7 µM and 41.4 µM |  | 46.8 µM and 33.9 µM |  | 74.2 µM and 29.8 µM |  | > 100 |  | > 100 µM and 79.2 µM |  | 68.6 µM and 33.5 µM |  | 16.5 µM and 47 µM
CO/N=C(\COc1ccc2c(c1)[nH]c1ccccc12)c1ccc(OC)cc1 | 5.29 | 25.2 | 11.4 µM | 47.1 µM | 32.9 | > 100 µM | 28.3 µM | > 100 µM | 5.84 | 27.5 µM | > 100 | > 100 µM | 18.9 | > 100 | 31.5 | > 100 µM | > 100 | > 100 µM | > 100 | > 100 µM
CCc1c2c(nc3ccc(OCc4ccc(B(O)O)cc4)cc13)-c1cc3c(c(=O)n1C2)COC(=O)[C@]3(O)CC | 0.0681 | > 32.3 | 0.0943 µM | 2.06 µM | 0.172 | 4.46 µM | 0.0118 µM | 17.8 µM | 0.0195 | > 32.1 µM | 0.0247 | > 78 µM | 0.752 | > 100 | 0.161 | > 33.7 µM | < 0.0156 | 1.66 µM | 0.184 | > 100 µM
CC(=O)Nc1ccc(-c2cc(C(=O)O)c3cc4ccccc4cc3n2)cc1 |  | > 100 |  | > 100 µM |  | > 100 µM |  | > 100 µM |  | > 100 µM |  | > 100 µM |  | > 100 |  | > 100 µM |  | > 100 µM |  | > 100 µM
N#C[Se]Cc1cc(-c2ccccc2)n(-c2ccc(S(N)(=O)=O)cc2)n1 | 0.605 | 2.12 | 2.21 µM | 6.63 µM | 1.18 | 2.98 µM | 0.383 µM | 1.32 µM | 1.35 | > 23.2 µM | 2.18 | 4.8 µM | 0.637 | 5.21 | 0.322 | 1.08 µM | 0.24 | 0.659 µM | 1.9 | 5.02 µM
Cc1c2cnccc2c(C)c2c1c1cc(C#N)ccc1n2C | 0.1 | 0.895 | 0.207 µM | 0.788 µM | 0.215 | 0.792 µM | 0.0434 µM | 0.593 µM | 0.103 | 1.96 µM | 0.0695 | 1.17 µM | 0.241 | 1.3 | 0.14 | 1.1 µM | 0.232 | 0.654 µM | 0.202 | 0.907 µM
C/C(=N/O)c1cccc(Nc2cc(-n3nnc4ccccc43)nc3ccccc23)c1 | 13.3 | > 72.9 | 22.7 µM | > 64.4 µM | 13 | 31.7 µM | 10.3 µM | 26 µM | 13.5 | 51.8 µM | 21.5 | 57 µM | 14.3 | 45.5 | 29.9 | > 73 µM | 7.48 | 20.3 µM | 3.07 | 14.4 µM
O=S(=O)(Nc1ccc(Br)cc1)c1ccc(-c2cnc(C3CC3)o2)cc1 | 3.85 | 22.5 | 10.5 µM | 27.5 µM | 1.05 | 3.96 µM | 2.2 µM | 16 µM | 4.16 | 20.4 µM | 0.785 | 12.3 µM | 1.38 | 6.17 | 2.57 | 15.8 µM | 1.41 | 16.1 µM | 2.62 | 14.5 µM
